Measurements reported in the supplement of paper PMC8612539.
In brackets after ≈: the same amount, converted by molar mass.

How the values were obtained:
[1] = system: Enterococcus spp.; assay: minimum inhibitory concentration (MIC)
Description: (§1)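 Broth microdilution MIC (Sensititre BOPO7F bovine plate, CLSI methods) of 19 antimicrobials against field isolates of P. multocida, M. haemolytica, H. somni (deep nasopharyngeal swabs) and E. coli, Enterococcus spp. (rectal swabs) from weaned dairy heifers. Incubation 16-24 h at 35 C. MIC is the lowest concentration preventing visible growth. Values with <= or > lie at the tested range limits. Trimethoprim-sulfamethoxazole is given as the trimethoprim component of a 1:19 mixture.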

[2] = system: Histophilus somni; assay: minimum inhibitory concentration (MIC)
Description: as §1

CNC(C)C1CCC(N)C(OC2C(N)CC(N)C(OC3OCC(C)(O)C(NC)C3O)C2O)O1 (stereo unspecified) [Gentamicin]
minimum inhibitory concentration [µg/mL]
Settings | [1] | [2]
isolate (source animal id): 2 | 8 (≈ 16.8 µM) | –
isolate (source animal id): 3 | – | 8 (≈ 16.8 µM)
isolate (source animal id): 4 | – | 8 (≈ 16.8 µM)
isolate (source animal id): 7 | – | 4 (≈ 8.38 µM)
isolate (source animal id): 14 | – | 4 (≈ 8.38 µM)
isolate (source animal id): 15 | – | 16 (≈ 33.5 µM)
isolate (source animal id): 17 | – | ≤ 1
isolate (source animal id): 18 | – | 16 (≈ 33.5 µM)
isolate (source animal id): 20 | – | ≤ 1
isolate (source animal id): 23 | – | 16 (≈ 33.5 µM)
isolate (source animal id): 35 | 16 (≈ 33.5 µM) | –
isolate (source animal id): 42 | 8 (≈ 16.8 µM) | –
isolate (source animal id): 44 | 16 (≈ 33.5 µM) | –
isolate (source animal id): 45 | – | 4 (≈ 8.38 µM)
isolate (source animal id): 53 | – | 4 (≈ 8.38 µM)
isolate (source animal id): 79 | 16 (≈ 33.5 µM) | –
isolate (source animal id): 83 | – | 16 (≈ 33.5 µM)
isolate (source animal id): 88 | 4 (≈ 8.38 µM) | 4 (≈ 8.38 µM)
isolate (source animal id): 91 | 4 (≈ 8.38 µM) | –
isolate (source animal id): 92 | 2 (≈ 4.19 µM) | 16 (≈ 33.5 µM)
isolate (source animal id): 93 | – | 4 (≈ 8.38 µM)
isolate (source animal id): 99 | – | 16 (≈ 33.5 µM)
isolate (source animal id): 100 | – | 16 (≈ 33.5 µM)
isolate (source animal id): 105 | – | 16 (≈ 33.5 µM)
isolate (source animal id): 107 | – | 16 (≈ 33.5 µM)
isolate (source animal id): 108 | – | 16 (≈ 33.5 µM)
isolate (source animal id): 109 | – | 16 (≈ 33.5 µM)
isolate (source animal id): 110 | – | 16 (≈ 33.5 µM)
isolate (source animal id): 111 | 4 (≈ 8.38 µM) | –
isolate (source animal id): 117 | – | 4 (≈ 8.38 µM)
isolate (source animal id): 121 | – | 4 (≈ 8.38 µM)
isolate (source animal id): 122 | 16 (≈ 33.5 µM) | –
isolate (source animal id): 123 | 8 (≈ 16.8 µM) | 8 (≈ 16.8 µM)
isolate (source animal id): 124 | – | 8 (≈ 16.8 µM)
isolate (source animal id): 127 | – | 8 (≈ 16.8 µM)
isolate (source animal id): 128 | – | 8 (≈ 16.8 µM)
isolate (source animal id): 130 | – | > 16
isolate (source animal id): 132 | – | 8 (≈ 16.8 µM)
isolate (source animal id): 133 | 16 (≈ 33.5 µM) | –
isolate (source animal id): 135 | – | 8 (≈ 16.8 µM)
isolate (source animal id): 140 | – | 8 (≈ 16.8 µM)
isolate (source animal id): 141 | – | 4 (≈ 8.38 µM)
isolate (source animal id): 142 | – | 8 (≈ 16.8 µM)
isolate (source animal id): 144 | – | 8 (≈ 16.8 µM)
isolate (source animal id): 146 | – | > 16
isolate (source animal id): 147 | – | 16 (≈ 33.5 µM)
isolate (source animal id): 151 | – | 8 (≈ 16.8 µM)
isolate (source animal id): 153 | – | 8 (≈ 16.8 µM)
isolate (source animal id): 154 | – | 16 (≈ 33.5 µM)
isolate (source animal id): 156 | – | 16 (≈ 33.5 µM)
isolate (source animal id): 157 | – | 8 (≈ 16.8 µM)
isolate (source animal id): 158 | 16 (≈ 33.5 µM) | –
isolate (source animal id): 168 | 8 (≈ 16.8 µM) | –
isolate (source animal id): 169 | 8 (≈ 16.8 µM) | –
isolate (source animal id): 171 | 4 (≈ 8.38 µM) | –
isolate (source animal id): 175 | 8 (≈ 16.8 µM) | –
isolate (source animal id): 176 | – | ≤ 1
isolate (source animal id): 177 | 8 (≈ 16.8 µM) | –
isolate (source animal id): 181 | 8 (≈ 16.8 µM) | –
isolate (source animal id): 182 | 8 (≈ 16.8 µM) | –
isolate (source animal id): 183 | 8 (≈ 16.8 µM) | ≤ 1
isolate (source animal id): 186 | – | ≤ 1
isolate (source animal id): 187 | 8 (≈ 16.8 µM) | –
isolate (source animal id): 190 | 8 (≈ 16.8 µM) | –
isolate (source animal id): 194 | 4 (≈ 8.38 µM) | –
isolate (source animal id): 195 | 8 (≈ 16.8 µM) | –
isolate (source animal id): 196 | – | 8 (≈ 16.8 µM)
isolate (source animal id): 197 | 8 (≈ 16.8 µM) | –
isolate (source animal id): 198 | – | 8 (≈ 16.8 µM)
isolate (source animal id): 200 | – | 8 (≈ 16.8 µM)
isolate (source animal id): 206 | – | 8 (≈ 16.8 µM)
isolate (source animal id): 208 | – | 8 (≈ 16.8 µM)
isolate (source animal id): 210 | – | 8 (≈ 16.8 µM)
isolate (source animal id): 211 | 8 (≈ 16.8 µM) | –
isolate (source animal id): 212 | – | 4 (≈ 8.38 µM)
isolate (source animal id): 214 | 16 (≈ 33.5 µM) | –
isolate (source animal id): 215 | – | 8 (≈ 16.8 µM)
isolate (source animal id): 216 | – | 8 (≈ 16.8 µM)
isolate (source animal id): 218 | – | 8 (≈ 16.8 µM)
isolate (source animal id): 219 | – | 8 (≈ 16.8 µM)
isolate (source animal id): 222 | 8 (≈ 16.8 µM) | –
isolate (source animal id): 223 | 8 (≈ 16.8 µM) | –
isolate (source animal id): 224 | – | 8 (≈ 16.8 µM)
isolate (source animal id): 228 | 8 (≈ 16.8 µM) | 2 (≈ 4.19 µM)
isolate (source animal id): 230 | 8 (≈ 16.8 µM) | ≤ 1
isolate (source animal id): 233 | – | 2 (≈ 4.19 µM)
isolate (source animal id): 235 | 4 (≈ 8.38 µM) | –
isolate (source animal id): 236 | 4 (≈ 8.38 µM) | –
isolate (source animal id): 238 | – | ≤ 1
isolate (source animal id): 239 | 4 (≈ 8.38 µM) | 2 (≈ 4.19 µM)
isolate (source animal id): 241 | 4 (≈ 8.38 µM) | 2 (≈ 4.19 µM)
isolate (source animal id): 242 | – | 2 (≈ 4.19 µM)
isolate (source animal id): 243 | – | ≤ 1
isolate (source animal id): 244 | 4 (≈ 8.38 µM) | –
isolate (source animal id): 245 | – | ≤ 1
isolate (source animal id): 246 | 8 (≈ 16.8 µM) | 2 (≈ 4.19 µM)
isolate (source animal id): 247 | 4 (≈ 8.38 µM) | ≤ 1
isolate (source animal id): 248 | – | ≤ 1
isolate (source animal id): 250 | 8 (≈ 16.8 µM) | ≤ 1
isolate (source animal id): 251 | – | ≤ 1
isolate (source animal id): 252 | 8 (≈ 16.8 µM) | 2 (≈ 4.19 µM)
isolate (source animal id): 254 | – | ≤ 1
isolate (source animal id): 258 | – | 4 (≈ 8.38 µM)
isolate (source animal id): 259 | – | 8 (≈ 16.8 µM)
isolate (source animal id): 262 | – | 4 (≈ 8.38 µM)
isolate (source animal id): 264 | – | 4 (≈ 8.38 µM)
isolate (source animal id): 265 | – | > 16
isolate (source animal id): 266 | – | 8 (≈ 16.8 µM)
isolate (source animal id): 267 | – | 8 (≈ 16.8 µM)
isolate (source animal id): 268 | 4 (≈ 8.38 µM) | –
isolate (source animal id): 269 | – | 4 (≈ 8.38 µM)
isolate (source animal id): 271 | – | 8 (≈ 16.8 µM)
isolate (source animal id): 272 | – | > 16
isolate (source animal id): 274 | – | 4 (≈ 8.38 µM)
isolate (source animal id): 276 | – | ≤ 1
isolate (source animal id): 278 | – | 8 (≈ 16.8 µM)
isolate (source animal id): 280 | – | > 16
isolate (source animal id): 281 | – | 8 (≈ 16.8 µM)
isolate (source animal id): 282 | 8 (≈ 16.8 µM) | –
isolate (source animal id): 283 | – | 4 (≈ 8.38 µM)
isolate (source animal id): 285 | 16 (≈ 33.5 µM) | –
isolate (source animal id): 288 | – | 16 (≈ 33.5 µM)
isolate (source animal id): 289 | 4 (≈ 8.38 µM) | –
isolate (source animal id): 290 | 4 (≈ 8.38 µM) | –
isolate (source animal id): 291 | – | 8 (≈ 16.8 µM)
isolate (source animal id): 292 | – | 16 (≈ 33.5 µM)
isolate (source animal id): 296 | 8 (≈ 16.8 µM) | 8 (≈ 16.8 µM)
isolate (source animal id): 298 | 4 (≈ 8.38 µM) | –
isolate (source animal id): 301 | 4 (≈ 8.38 µM) | –
isolate (source animal id): 306 | – | 8 (≈ 16.8 µM)
isolate (source animal id): 310 | 4 (≈ 8.38 µM) | –
isolate (source animal id): 320 | 8 (≈ 16.8 µM) | –
isolate (source animal id): 331 | 8 (≈ 16.8 µM) | –
isolate (source animal id): 333 | 4 (≈ 8.38 µM) | –
isolate (source animal id): 336 | – | 16 (≈ 33.5 µM)
isolate (source animal id): 337 | – | 16 (≈ 33.5 µM)
isolate (source animal id): 341 | 16 (≈ 33.5 µM) | 8 (≈ 16.8 µM)
